{"source": "patent US7736649B2", "about": "“Methods of inhibiting human immunodeficiency virus infection through the administration of synergistic combinations of anti-CCR5 monoclonal antibodies, fusion inhibitors, and CD4-GP120 binding inhibitors” (priority 2000, dated 2010)", "key": {"[1]": {"system": "HIV-1JR-FL env-mediated membrane fusion", "procedure": "HIV-1 envelope-mediated fusion between HeLa-EnvJR-FL and PM1 cells was detected using a Resonance Energy Transfer (RET) assay.\nHIV-1 inhibition data were analyzed according to the Combination Index method of Chou and Talay. The data are modeled according to the median-effect principle, which can be written f=1/[1+(K/c)^m] (1) where f is the fraction affected/inhibited, c is concentration, K is the concentration of agent required to produce the median effect, and m is an empirical coefficient describing the shape of the dose-response curve. Equation (1) is a generalized form of the equations describing Michaelis-Menton enzyme kinetics, Langmuir adsorption isotherms, and Henderson-Hasselbalch ionization equilibria, for which m=1 in all cases. In the present case, K is equal to the IC50 value. K and m are determined by curve-fitting the dose-response curves.\nAfter the best-fit parameters for K and m are obtained for the experimental agents and their combination, Equation (1) is rearranged to allow for calculation of c for a given f. The resulting table of values (e.g., Figure X) is used to calculate the Combination Index (CI) using the equation CI=c1m/c1+c2m/c2+c1mc2m/c1c2 (2) where • c1=concentration of compound 1 when used alone • c2=concentration of compound 2 when used alone • C1m=concentration of compound 1 in the mixture • C2m=concentration of compound 2 in the mixture\nAll concentrations are those required to achieve a given degree of inhibition. Equation (2) is used when the molecules are mutually nonexclusive, i.e., have different sites of action. Since this is the likely scenario for inhibitors of HIV-1 attachment and gp41 fusion intermediates, Equation (2) was used for all Combination Index calculations. Mutually nonexclusive calculations provide a more conservative estimate of the degree of synergy that mutually exclusive calculations, for which the c1mc2m/c1c2 term is dropped. CI<1 indicates synergy, CI=1 indicates purely additive effects, and CI>1 indicates antagonism. In general, CI values are most relevant at the higher levels of inhibition that are required to achieve a measurable clinical benefit.\nAfter the best-fit parameters for K and m are obtained for the experimental agents and their combination, Equation (1) is rearranged to allow for calculation of c for a given f. The resulting table of values (e.g., Figure X) is used to calculate the Combination Index (CI) using the equation CI=c1m/c1+c2m/c2+c1mc2m/c1c2 (2) where • c1=concentration of compound 1 when used alone • c2 concentration of compound 2 when used alone • c1m=concentration of compound 1 in the mixture • c2m=concentration of compound 2 in the mixture\nHIV-1 cell-cell fusion assays Cell-cell fusion mediated by the envelope glycoproteins of HIV-1JR-FL and HIV-1LAI was measured using a fluorescence resonance energy transfer (RET) assay, which measures fusion between HeLa cells expressing HIV-1 envelope glycoproteins and CD4^+ target cells. The T cell lines PM1 and SupT1 were used as target cells in this study. PM1 endogenously express CCR5 and CXCR4. […] The RET signal is directly related to the extent of membrane fusion.\n(§1) Quantitative analysis of drug interactions Inhibition data from three independent assays were averaged and analyzed for cooperative effects using the Combination Index (CI) method. In all analyses, PRO 542 and T-20 were assumed to act non-competitively, which leads to a more conservative estimate of synergy. CI values of <0.9 (or >1.1) were taken to represent meaningful synergy (or antagonism). Dose reductions were calculated as the ratio of drug concentrations required for inhibition when the drug is used, alone or in combination.\nAn HIV-1 cell-cell fusion assay is described in FIG. 18. Such assay is a Resonance Energy Transfer (RET) assay of HIV-1 membrane fusion."}, "[2]": {"system": "HIV-1JR-FL (R5)", "procedure": "HIV-1 virus-cell fusion assays NLluc^+env^− viruses were complemented in trans by the envelope glycoproteins (Env) from HIV-1JR-FL (R5) or HIV-1DH123 (R5X4). HeLa-CD4^+CCR5^+ cells were infected with chimeric reporter viruses containing 50-100 ng/ml of p24 in the presence or absence of drugs. Cells were washed and fed fresh drug-containing media at 2 h and drug-free media at 12 h. After 72 h, cell lysates were assayed for luciferase activity.\nas §1\nAn HIV-1 virus-cell fusion assay is described in FIG. 15. In a single-cycle HIV-1 entry assay, Env-Luc+ HIV reporter viruses were prepared as described. The viruses are complemented with gp120/gp41 from an HIV strain of interest and thus are capable of fusing with target cells that express CD4 and fusion coreceptors, resulting in the introduction of the viral genes into the cell. Because the viruses encode the luciferase reporter enzyme rather than HIVenv, infection leads to the production of luciferase rather than new viral particles. The amount of luciferase is measured 72 hours post-infection using standard methods."}, "[3]": {"system": "HIV-1 fusion intermediates", "conditions": "cited from earlier work"}, "[4]": {"system": "HIV-1", "conditions": "cited from earlier work"}, "[5]": {"conditions": "cells and inhibitor co-incubated 2 h at 25° C. prior to washing and warming to 37° C., data not shown"}}, "note": "Read-outs that look alike come from different tables or passages of the source."}
{"substance": "enfuvirtide", "values": [{"measurement": "concentration of the agent contained in the combination at 95% inhibition", "setting": "[1]; 25:1 CD4-IgG2:T-20 mass ratio combination", "result": 0.044, "unit": "µg/mL"}, {"measurement": "dose reduction (alone v. in combination)", "setting": "[1]; 95% inhibition, 25:1 mass ratio", "result": 5, "unit": "fold"}, {"measurement": "activity in cell-cell preincubation assay, in words", "setting": "[1]; HeLa-Env and PM1 cells co-incubated 2 h at 25° C., inhibitor added, warmed to 37° C.", "result": "fully active"}, {"measurement": "concentration required for inhibition of viral entry by 95%", "setting": "[1]; agent used alone, or total of 25:1 mass ratio combination", "result": 0.21, "unit": "µg/mL"}, {"measurement": "IC90", "setting": "[1]; alone, or total of 1:10 molar PRO 542:T-20 combination", "result": 22, "unit": "nM"}, {"measurement": "K (concentration producing the median effect, equal to IC50)", "setting": "[1]; best-fit median-effect parameter, 4 h incubation, mean of three experiments", "result": 0.017, "unit": "µg/mL"}, {"measurement": "activity, in words", "setting": "[1]; [5]", "result": "essentially inactive"}, {"measurement": "fold increase in IC50", "setting": "[1]; [5]", "result": "> 250", "unit": "fold"}, {"measurement": "activity when pre-incubated with PM1 cells prior to washing", "setting": "[1]; data not shown", "result": "Neither drug demonstrated activity"}, {"measurement": "activity in washout assay, in words", "setting": "[1]; drug pre-incubated with HeLa-Env cells, washed, then PM1 cells added", "result": "essentially inactive"}, {"measurement": "IC90", "setting": "[1]; read-out: concentration of the agent in the combination at IC90, 1:10 molar combination", "result": 4.9, "unit": "nM"}, {"measurement": "dose reduction (fold less drug needed)", "setting": "[2]; 90-95% inhibition, 1:2 molar", "result": "~20", "unit": "fold"}, {"measurement": "IC90", "setting": "[2]; read-out: IC90 (concentration required for 90% inhibition), alone, or total of 1:2 molar PRO 542:T-20 combination", "result": 45, "unit": "nM"}, {"measurement": "IC90", "setting": "[2]; read-out: concentration of the agent in the combination at IC90, 1:2 molar combination", "result": 2.6, "unit": "nM"}, {"measurement": "inhibition", "setting": "[3]; added at 75 minutes", "result": "< 10", "unit": "%"}, {"measurement": "inhibition", "setting": "[3]; added within the first 15 minutes of cell mixing", "result": 100, "unit": "%"}, {"measurement": "pK, in words", "setting": "[4]; Phase I/II clinical trials", "result": "supports twice daily subcutaneous dosing"}, {"measurement": "tolerability", "setting": "[4]; Phase I/II clinical trials", "result": "good tolerability"}, {"measurement": "viral load, in words", "setting": "[4]; Phase I/II clinical trials", "result": "clinically significant dose-dependent reductions"}, {"measurement": "reduction of plasma HIV RNA levels", "setting": "[4]; Phase I/II", "result": "≤ 2", "unit": "logs"}, {"measurement": "reductions in HIV RNA", "setting": "[4]; single agent, Phase I/II trials", "result": "1-2 log10"}]}
